In brackets after ≈: the same amount, converted by molar mass. Counter-ions that a name gives are not always drawn.
Assays:
B. subtilis (CMCC63501) = assay: Antibacterial microdilution titre assay (resazurin), MIC; settings: Gram-positive, 37 °C, 5–6 h
[1] = system: S. dysenteriae (CMCC51252); assay: as above; format: cell-based; settings: Shigella dysenteriae
[2] = system: A549 (human lung adenocarcinoma); assay: Cytotoxicity, MTT method; settings: read-out: Cytotoxicity IC50, A549 cells, 72 h, mean ± SD (n = 3)
Description: (§1) These compounds were also tested for their in vitro cytotoxicity against three human tumor cell lines, A549 (human lung adenocarcinoma), HeLa (human cervical carcinoma) and HepG2 (human liver hepatocellular carcinoma), using the MTT method as described.
(§2) The three tumor cell lines were generously provided by Kunming Institute of Zoology, Chinese Academy of Sciences. The cytotoxic activities of the tested compounds were assayed according to the MTT method by using 96 well plates. Briefly, the cells were cultured in RPMI-1640 medium, supplemented with 10% fetal bovine serum in a humidified atmosphere with 5% CO2 at 37 °C. One hundred μL of adherent cells at the density of 5 × 10^4 cell/mL was seeded into each well of 96-well cell culture plates and incubated in 5% CO2 at 37 °C for 24 h to form a monolayer on the flat bottoms. Then, removed the supernatant per well and subsequently added with 100 μL of fresh medium and 100 μL of medium containing a test compound. The plate was then incubated in 5% CO2at 37 °C. After 72 h, 20 μL of 5 mg/mL MTT in DMSO was added into each well and incubated for 4 h. The supernatant per well was carefully removed and 150 μL of DMSO was added. The plate was then vortex shaken for 15 min to dissolve blue formazan crystals. The optical density (OD) of each well was measured on a Genois microplate reader (Tecan GENios, Männedorf, Switzerland) at the wavelength of 570 nm. All experiments were performed in triplicate and adriamycin was used as a positive control. In each experiment, each of the tumor cell lines was exposed to the test compound at concentrations of 50, 25, 12.5, 6.25, 3.125, 1.5625 µg/mL. The inhibitory rate of cell growth was calculated according to the following formula: Inhibition rate (%) = (ODcontrol− ODtreated)/ODcontrol× 100%. IC50 values were calculated by SPSS 16.0 statistic software. The values were based on three individual experiments and expressed as means ± standard deviation (SD).

Cytotoxicity, MTT method = settings: human
Description: as §1, §2

MRSA = assay: Antibacterial microdilution titre assay (resazurin), MIC; settings: for MIC: MRSA, Gram-positive, 37 °C, 5–6 h
B. cereus (CMCC63302) = assay: as above; settings: Gram-positive, 37 °C, 5–6 h
E. coli (CMCC44102) = assay: as above; settings: Escherichia coli
S. aureus (CMCC26003) = assay: as above; settings: Gram-positive, 37 °C, 5–6 h
[3] = system: S. typhimurium (CMCC44102); assay: as above; settings: Salmonella enterica
[4] = system: HeLa (human cervical carcinoma); assay: Cytotoxicity, MTT method; settings: read-out: Cytotoxicity IC50, HeLa cells, 72 h, mean ± SD (n = 3)
Description: as §1, §2

[5] = Bacillus subtilis, CMCC63501, B. subtilis (CMCC63501)
[6] = Cytotoxicity IC50, A549 cells, mean ± SD (n = 3)
[7] = Cytotoxicity IC50, HeLa cells, mean ± SD (n = 3)
[8] = Bacillus cereus, CMCC63302, B. cereus (CMCC63302)
[9] = Staphylococcus aureus, CMCC26003, S. aureus (CMCC26003)

SMILES	MIC (B. subtilis (CMCC63501); [5]) [µg/mL]	MIC [1] [µg/mL]	IC50 [2] [µM]	IC50 at 72 h (Cytotoxicity, MTT method) [µM]	IC50 at 72 h (Cytotoxicity, MTT method; [6]) [µM]	IC50 at 72 h (Cytotoxicity, MTT method; [7]) [µM]	MIC (MRSA; Staphylococcus aureus) [µg/mL]	MIC (B. cereus (CMCC63302); [8]) [µg/mL]	MIC (E. coli (CMCC44102)) [µg/mL]	MIC (S. aureus (CMCC26003); [9]) [µg/mL]	MIC [3] [µg/mL]	MIC (B. subtilis (CMCC63501); B. subtilis (CMCC63501)) [µg/mL]	MIC toward MRSA, fold stronger than the reference compound kanamycin (MRSA; MIC compared with kanamycin)	MIC (MRSA) [µg/mL]	MIC (B. cereus (CMCC63302); B. cereus (CMCC63302)) [µg/mL]	MIC (S. aureus (CMCC26003); S. aureus (CMCC26003)) [µg/mL]	IC50 [4] [µM]
C=C1CC[C@]2(C(=O)O)CC[C@]3(C)C(=CCC4[C@@]5(C)C[C@@H](O)[C@H](O)C(C)(C)C5CC[C@]43C)C2C1 (stereo partly drawn) [Compound 4, 2α,3β-dihydroxy-30-noroleana-12,20(29)-dien-28-oic acid]	25 (≈ 54.7 µM)	> 200	8.77 ± 0.59	14.3 ± 0.49	8.8	16.33 ± 0.12	200 (≈ 438 µM)	50 (≈ 109 µM)	> 200	200 (≈ 438 µM)	> 200	–	–	–	–	–	–
C=C1CC[C@]2(C(=O)O)CC[C@]3(C)C(=CCC4[C@@]5(C)CC[C@H](O)C(C)(C)C5CC[C@]43C)C2C1 (stereo partly drawn) [Compound 3, 3β-akebonoic acid]	12.5 to 25 (≈ 28.4 to 56.7 µM)	> 200	–	52.9 ± 5.28	49.5 ± 8.64	28.6 ± 7.41	12.5 to 25 (≈ 28.4 to 56.7 µM)	12.5 to 25 (≈ 28.4 to 56.7 µM)	> 200	12.5 to 25 (≈ 28.4 to 56.7 µM)	> 200	12.5 (≈ 28.4 µM)	about five-fold	25 (≈ 56.7 µM)	25 (≈ 56.7 µM)	25 (≈ 56.7 µM)	–
C=C1CC[C@]2(C(=O)O)CC[C@]3(C)C(=CCC4[C@@]5(C)CC[C@@H](O)C(C)(C)C5CC[C@]43C)C2C1 (stereo partly drawn) [Compound 5, 3α-akebonoic acid]	50 (≈ 113 µM)	> 200	–	10.4 ± 1.17	10.6 ± 0.69	5.6	> 200	25 (≈ 56.7 µM)	> 200	> 200	> 200	–	–	–	–	–	5.61
C=C1CCC2(C(=O)O)CCC3(C)C(=CCC4C5(C)CC(O)C(O)C(C)(C=O)C5CCC43C)C2C1 (stereo not drawn) [Compound 2, 2α,3β-dihydroxy-23-oxo-30-norolean-12,20(29)-dien-28-oic acid]	> 200	> 200	–	> 100	> 100	> 100	> 200	> 200	> 200	> 200	> 200	–	–	–	–	–	–
NC[C@H]1O[C@H](O[C@H]2[C@H](O)[C@@H](O[C@H]3O[C@H](CO)[C@@H](O)[C@H](N)[C@H]3O)[C@H](N)C[C@@H]2N)[C@H](O)[C@@H](O)[C@@H]1O [K, kanamycin sulfate, reference compound]	3.9	3.9	–	–	–	–	125	3.9	3.9	1.9	3.9	–	–	–	–	–	–
CC1(O)CCC2(C(=O)O)CCC3(C)C(=CCC4C5(C)CC(O)C(O)C(C)(C)C5CCC43C)C2C1 (stereo not drawn) [Compound 1, 2α,3β,20α-trihydroxy-30-norolean-12-en-28-oic acid]	> 200	> 200	–	> 100	> 100	> 100	> 200	> 200	> 200	> 200	> 200	–	–	–	–	–	–
C=C1CC[C@]2(C(=O)O)CC[C@]3(C)C(=CCC4[C@@]5(C)CC[C@@H](O)[C@](C)(CO)C5CC[C@]43C)C2C1 (stereo partly drawn) [Compound 6, quinatic acid]	12.5 (≈ 27.4 µM)	> 200	–	> 100	> 100	> 100	> 200	50 (≈ 109 µM)	> 200	> 200	> 200	–	–	–	–	–	–
CC1=C(C(=O)O)N2C(=O)[C@@H](NC(=O)[C@H](N)C3=CCC=CC3)[C@H]2SC1 [C, cefradine, reference compound]	200 (≈ 572 µM)	12.5 (≈ 35.8 µM)	–	–	–	–	> 200	200 (≈ 572 µM)	12.5 (≈ 35.8 µM)	50 (≈ 143 µM)	12.5 (≈ 35.8 µM)	–	–	–	–	–	–

Reference: publication PMC6271860, “Bioactive 30-Noroleanane Triterpenes from the Pericarps of Akebia trifoliata” (Molecules, 2014)
